According to ChEMBL document CHEMBL1201862, “PubChem BioAssay data set” (2004):
Active and inactive are the calls of the source.

Tests used:
cells [1] = assay: cells
[2] = viability of uninfected HEp-2 cells – cell-based, HTS, cytotoxicity control for RSV inhibitor project, dose response (AID 2410); format: functional; details: human respiratory syncytial virus
[3] = molecular target: Induced myeloid leukemia cell differentiation protein Mcl-1 (Homo sapiens, UniProt Q07820); format: functional
[4] = molecular target: T1, Zinc finger protein mex-5 (Caenorhabditis elegans, UniProt Q9XUB2); assay: potency of MEX-5 RNA-binding blockers – biochemical, C. elegans, fluorescence polarization, dose response (AID 1960)
T1 sequence (Q9XUB2 whole entry): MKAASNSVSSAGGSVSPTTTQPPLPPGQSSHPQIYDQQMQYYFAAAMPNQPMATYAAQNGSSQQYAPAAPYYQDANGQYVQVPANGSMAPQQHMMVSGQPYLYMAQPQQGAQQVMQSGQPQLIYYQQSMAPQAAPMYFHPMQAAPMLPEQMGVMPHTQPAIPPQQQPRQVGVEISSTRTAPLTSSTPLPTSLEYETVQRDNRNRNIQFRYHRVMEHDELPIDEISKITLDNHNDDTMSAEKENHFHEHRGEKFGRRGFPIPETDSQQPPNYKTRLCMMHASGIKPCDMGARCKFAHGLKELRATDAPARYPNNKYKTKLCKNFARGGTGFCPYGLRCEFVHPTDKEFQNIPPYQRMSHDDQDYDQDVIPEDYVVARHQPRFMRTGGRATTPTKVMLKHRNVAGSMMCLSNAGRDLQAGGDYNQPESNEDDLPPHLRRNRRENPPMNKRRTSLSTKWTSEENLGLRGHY

[5] = molecular target: T2, RNA-binding protein pos-1 (Caenorhabditis elegans, UniProt G5EF15); assay: disruptors of C. elegans POS-1 RNA interaction – biochemical, fluorescence polarization, dose response (AID 1964);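 further: purified POS-1 fused to maltose binding protein made in E. coli; potency of compounds blocking POS-1 binding to fluorescent RNA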
T2 sequence (G5EF15 whole entry): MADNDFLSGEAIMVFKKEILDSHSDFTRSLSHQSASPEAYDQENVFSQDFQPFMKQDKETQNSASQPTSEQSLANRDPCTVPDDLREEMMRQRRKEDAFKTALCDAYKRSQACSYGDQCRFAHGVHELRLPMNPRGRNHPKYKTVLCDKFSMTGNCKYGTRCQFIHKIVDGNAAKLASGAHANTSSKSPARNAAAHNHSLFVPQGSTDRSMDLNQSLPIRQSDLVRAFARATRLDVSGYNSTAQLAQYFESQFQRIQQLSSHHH

[6] = luciferase reporter signal suppression in cells – H4 neuroglioma cells, luminescence, dose response (AID 1990); format: functional, cell-based
Vero = assay: mammalian cell viability reduction – secondary assay, cytotoxicity control for West Nile virus antiviral project, dose response (AID 1650); format: functional; details: Chlorocebus sabaeus
cells [7] = format: functional, cell-based; details: HEK-CNG
Galanin receptor type 3 = molecular target: T3, Galanin receptor type 3 (Homo sapiens, UniProt O60755); assay: Fluorescence-based cell-based primary high throughput dose response assay to identify antagonists of the Galanin Receptor 3 (GalR3).; format: functional
T3 sequence (O60755 whole entry): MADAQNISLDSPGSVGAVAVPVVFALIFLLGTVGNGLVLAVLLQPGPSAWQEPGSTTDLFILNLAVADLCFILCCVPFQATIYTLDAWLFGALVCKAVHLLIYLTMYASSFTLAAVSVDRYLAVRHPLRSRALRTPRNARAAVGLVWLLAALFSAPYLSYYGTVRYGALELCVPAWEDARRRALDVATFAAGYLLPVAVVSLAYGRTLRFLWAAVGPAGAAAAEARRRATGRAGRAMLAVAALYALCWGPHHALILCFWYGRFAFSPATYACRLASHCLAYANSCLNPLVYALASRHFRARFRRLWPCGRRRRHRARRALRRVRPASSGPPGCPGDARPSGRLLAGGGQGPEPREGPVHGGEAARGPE

[8] = Luminescence Cell-Based Dose Response HTS to Identify Inhibitors of 5'UTR Stem-Loop Driven Prion Protein mRNA Translation in H4 Neuroglioblastoma Cells. [Related pubchem assays: 1827 (Project Summary), 1813 (Primary HTS)]; format: functional
[9] = alpha-synuclein stem-loop luciferase translation blockers – H4 neuroglioma cells, luminescence, confirmation (AID 1988); format: functional, cell-based
[10] = Luminescence Cell-Based Dose Retest to Confirm Inhibitors of Cancer Stem Cells. [Related pubchem assays (depositor defined):AID2717, AID2721]; format: functional; details: Homo sapiens
[11] = molecular target: T4, RNA-editing ligase 1, mitochondrial (Trypanosoma brucei brucei, UniProt P86926); assay: inhibition of trypanosome RNA editing ligase – biochemical, fluorescence, Trypanosoma brucei, dose response (AID 1117295); format: functional
T4 sequence (P86926 whole entry): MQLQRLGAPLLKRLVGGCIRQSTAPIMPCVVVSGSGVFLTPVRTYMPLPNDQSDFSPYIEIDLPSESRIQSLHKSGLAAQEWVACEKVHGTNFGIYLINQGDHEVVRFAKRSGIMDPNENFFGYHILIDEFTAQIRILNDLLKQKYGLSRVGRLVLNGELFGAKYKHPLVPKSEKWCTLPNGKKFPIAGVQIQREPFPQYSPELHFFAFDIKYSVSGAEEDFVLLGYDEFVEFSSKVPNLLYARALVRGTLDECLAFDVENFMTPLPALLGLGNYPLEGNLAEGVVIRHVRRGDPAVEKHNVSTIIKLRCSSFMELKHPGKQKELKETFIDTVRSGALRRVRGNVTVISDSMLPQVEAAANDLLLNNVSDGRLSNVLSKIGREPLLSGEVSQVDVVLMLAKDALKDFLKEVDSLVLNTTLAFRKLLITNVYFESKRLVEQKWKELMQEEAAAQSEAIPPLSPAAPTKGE

Cytochrome P450 2D6 = Cytochrome P450 2D6 (Homo sapiens, UniProt P10635);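 further: CYP2D6 member of a cytochrome P450 panel assay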
Cytochrome P450 2C9 [12] = molecular target: T5, Cytochrome P450 2C9 (Homo sapiens, UniProt P11712)
Cytochrome P450 2C9 [13] = molecular target: T5, Cytochrome P450 2C9; details: Potency
[14] = NIH3T3 cell viability loss – ATP luminescence, mouse fibroblasts, counter-screen, dose response (AID 2010); format: functional, cell-based;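 further: cells exposed to compound for about 90 hours before reading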
[15] = Trypanosoma cruzi growth suppression in host cells – NIH3T3 host cells, beta-gal luminescence, confirmation (AID 2044); format: functional, cell-based;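 further: intracellular parasites grown in NIH/3T3 mouse fibroblasts as host cells; luminescent beta-galactosidase reporter signal from transgenic T. cruzi replicating inside host cells; inhibitors lower the luminescence signal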
[16] = A cytotoxicity screen of small molecule inhibitors of the PhoP region in Salmonella typhi identified in the primary screen. [Related pubchem assays: 1850, 1864, 1985 ]; format: functional
Protein Tat = molecular target: T6, Protein Tat (Human immunodeficiency virus type 1 group M subtype B (isolate HXB2)(HIV-1), UniProt P04608); format: functional;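 further: tat binding to TAR RNA read out by fluorescence polarization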
T6 sequence (P04608 whole entry): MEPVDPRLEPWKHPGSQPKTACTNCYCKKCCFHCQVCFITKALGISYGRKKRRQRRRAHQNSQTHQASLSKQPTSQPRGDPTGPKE

[17] = HIV-1 Vif–A3G interaction blockers – biochemical, TR-FRET, GST-Vif 1-94, biotin-A3G peptide, dose response retest, primary screen (AID 1117319); format: functional;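 further: TR-FRET signal of purified GST-Vif binding a biotinylated A3G peptide; inhibitors lower the FRET signal by blocking Vif and A3G binding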

T5 sequence (P11712 whole entry): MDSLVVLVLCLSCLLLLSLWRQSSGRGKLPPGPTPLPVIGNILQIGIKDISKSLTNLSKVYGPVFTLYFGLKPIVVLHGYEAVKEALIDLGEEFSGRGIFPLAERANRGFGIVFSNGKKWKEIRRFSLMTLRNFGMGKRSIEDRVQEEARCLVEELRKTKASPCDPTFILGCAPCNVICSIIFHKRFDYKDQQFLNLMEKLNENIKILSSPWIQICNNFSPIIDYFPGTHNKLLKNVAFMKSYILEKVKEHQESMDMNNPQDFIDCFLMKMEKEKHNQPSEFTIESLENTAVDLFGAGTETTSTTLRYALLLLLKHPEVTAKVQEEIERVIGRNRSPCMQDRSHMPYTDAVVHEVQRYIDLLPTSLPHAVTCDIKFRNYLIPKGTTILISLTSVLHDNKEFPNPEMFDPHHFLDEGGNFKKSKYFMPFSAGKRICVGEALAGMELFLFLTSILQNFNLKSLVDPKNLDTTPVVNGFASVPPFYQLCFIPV
Induced myeloid leukemia cell differentiation protein Mcl-1, sequence (Q07820 whole entry): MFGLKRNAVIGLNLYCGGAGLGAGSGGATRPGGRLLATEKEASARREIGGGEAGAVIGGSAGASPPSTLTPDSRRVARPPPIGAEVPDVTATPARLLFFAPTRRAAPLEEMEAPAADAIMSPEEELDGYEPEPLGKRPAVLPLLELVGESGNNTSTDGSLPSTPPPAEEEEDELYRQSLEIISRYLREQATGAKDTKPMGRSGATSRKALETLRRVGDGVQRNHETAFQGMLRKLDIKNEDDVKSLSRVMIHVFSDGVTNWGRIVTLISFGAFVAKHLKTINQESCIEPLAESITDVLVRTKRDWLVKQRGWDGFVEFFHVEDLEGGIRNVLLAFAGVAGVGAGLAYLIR
Cytochrome P450 2D6, sequence (P10635 whole entry): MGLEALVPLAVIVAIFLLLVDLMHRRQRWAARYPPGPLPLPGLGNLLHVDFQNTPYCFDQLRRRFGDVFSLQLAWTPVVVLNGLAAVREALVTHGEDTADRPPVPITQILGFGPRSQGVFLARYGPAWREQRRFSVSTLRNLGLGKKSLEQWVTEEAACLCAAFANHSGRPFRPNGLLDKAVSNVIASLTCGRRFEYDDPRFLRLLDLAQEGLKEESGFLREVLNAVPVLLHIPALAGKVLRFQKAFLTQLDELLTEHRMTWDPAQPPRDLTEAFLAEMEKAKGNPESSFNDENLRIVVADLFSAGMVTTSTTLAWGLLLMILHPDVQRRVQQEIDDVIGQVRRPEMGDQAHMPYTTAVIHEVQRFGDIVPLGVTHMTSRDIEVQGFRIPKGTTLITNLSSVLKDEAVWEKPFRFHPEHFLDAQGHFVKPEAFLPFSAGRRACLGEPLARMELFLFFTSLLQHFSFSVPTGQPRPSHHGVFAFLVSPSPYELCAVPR

With NC(=O)[C@H]1CC2(CC(c3cccc(NC(=O)COc4ccc(Cl)cc4)c3)=NO2)CN1C(=O)c1ccccc1C(=O)c1ccccc1 (some centres not stated) as the compound, how does the IC50 (cells [1]) read?
Its IC50 is 24.9 µM (active).

What about the CC50 [2] of the same compound?
Its CC50 is 12.3 µM (active).

With Cc1cc(C)c2c(c1)C1C=CCC1C(c1ccc(S(=O)(=O)N3CCOCC3)cc1)N2 (configuration not stated) as the compound, how does the IC50 (cells [1]) read?
Its IC50 is 11.7 µM (active).

What about the IC50 [3] of the same compound?
The IC50 was 2.74 µM (active).

What about the CC50 [2] of the same compound?
Its CC50 is 15.6 µM (active).

And the EC50 [4]?
Its EC50 is > 300 µM (not active).

What about the EC50 [5] of the same compound?
The EC50 was > 300 µM (not active).

What does the source list for C[C@]12CC[C@H]3C(CCC4(O)CC(O)CC[C@]34C=O)C1=CC[C@H]2c1ccc(=O)oc1 (some centres not stated)?
EC50 [6]: 6.93 µM (active); CC50 (Vero): 20.5 µM (active); EC50 (cells [7]): > 29.9 µM (inactive); IC50 (Galanin receptor type 3): > 29.9 µM (inactive); EC50 [8]: 5.93 µM (active); EC50 [9]: 1.62 µM (active); AC50 [10]: 3.49 µM (active)

Which IC50 (cells [1]) does the source give for CC(NCC(O)COc1ccc2ccccc2c1)c1ccccc1 (configuration not stated) here?
The IC50 was > 25 µM (active).

And the IC50 [11]?
Its IC50 is > 96.6 µM (inactive).

What about the CC50 [2] of the same compound?
The CC50 was 24.1 µM (active).

Which results are given for C[C@@H](/C=C\c1cccc(Oc2ccc(F)cc2)c1)N(O)C(N)=O?
AC50 (Cytochrome P450 2D6): 10 µM (inconclusive); AC50 (Cytochrome P450 2C9 [12]): 31.6 µM (inconclusive); AC50 (Cytochrome P450 2C9 [13]): 25.1 µM (inconclusive)

For CCNc1nc(N)nc(Oc2ccc(OCCOc3ccc(Cl)cc3Cl)nn2)n1, which EC50 [14] is on record?
The EC50 was 6.72 µM (active).

And the EC50 [15]?
The EC50 was 0.668 µM (active).

What about the EC50 [16] of the same compound?
The EC50 was > 50 µM (active).

For Cc1ccc(N2C(=O)[C@@H]3[C@H](C2=O)[C@H]2C=CC=NN2[C@@H]3C(=O)Nc2ccc(Cl)cc2)cc1, which IC50 (Protein Tat) is on record?
The IC50 was > 100 µM (active).

What about the IC50 [17] of the same compound?
The IC50 was > 100 µM (active).

And the EC50 [16]?
The EC50 was > 50 µM (active).

For CC(C)C(c1nnnn1Cc1ccccc1)N(CCCO)Cc1cc2cc3c(cc2nc1O)OCO3 (configuration not stated), which EC50 [16] is on record?
Its EC50 is > 50 µM (active).
